Among the data in ChEMBL document CHEMBL3638496, “Pyrazolopyrrolidine derivatives and their use in the treatment of disease” (2015) are IC50 values, retold here.

One may read the IC50 as the concentration that gives 50% inhibition.

The target in one assay is CREB-binding protein (Homo sapiens, UniProt Q92793). The assay can be described thus: AlphaScreen In-Vitro Binding Assay: In order to assess bromodomain selectivity, we set up a binding assay using the bromodomain encoded by the CREBBP gene. Compounds were tested in the CREBBP assay with a similar protocol, however using AlphaScreen (Amplified Luminescent Proximity Homogeneous Assay, Perkin Elmer) as detection readout instead of TR-FRET. The assay was started by stepwise addition of 4.5 uL per well of bromo domain protein (50 mM HEPES, pH 7.5, 0.005% Tween20, 0.02% BSA, 150 mM NaCl, 324 nM His-CREBBP (1081-1197) (custom production at Viva Biotech Ltd.)) and 4.5 uL per well of peptide solution (50 mM HEPES, pH 7.5, 0.005% Tween20, 0.02% BSA, 150 mM NaCl, 120 nM acetyl-histone H4 (AcK 5, 8, 12) (Biosyntan GmbH)). Reactions were incubated at 30 C. for 35 minutes. Subsequently 4.5 uL per well detection mix (50 mM HEPES, pH 7.5, 0.005% Tween20, 0.02% BSA, 150 mM NaCl, 45 ug/ml Ni-chelate acceptor beads, 45 ug/mL streptavidin-donor beads) (Perkin Elmer)) were added. In general terms: In Alpha technology, singlet oxygen from a donor bead excites a nearby acceptor bead.
Chain of CREB-binding protein (Q92793 whole entry, the tested form may be a part): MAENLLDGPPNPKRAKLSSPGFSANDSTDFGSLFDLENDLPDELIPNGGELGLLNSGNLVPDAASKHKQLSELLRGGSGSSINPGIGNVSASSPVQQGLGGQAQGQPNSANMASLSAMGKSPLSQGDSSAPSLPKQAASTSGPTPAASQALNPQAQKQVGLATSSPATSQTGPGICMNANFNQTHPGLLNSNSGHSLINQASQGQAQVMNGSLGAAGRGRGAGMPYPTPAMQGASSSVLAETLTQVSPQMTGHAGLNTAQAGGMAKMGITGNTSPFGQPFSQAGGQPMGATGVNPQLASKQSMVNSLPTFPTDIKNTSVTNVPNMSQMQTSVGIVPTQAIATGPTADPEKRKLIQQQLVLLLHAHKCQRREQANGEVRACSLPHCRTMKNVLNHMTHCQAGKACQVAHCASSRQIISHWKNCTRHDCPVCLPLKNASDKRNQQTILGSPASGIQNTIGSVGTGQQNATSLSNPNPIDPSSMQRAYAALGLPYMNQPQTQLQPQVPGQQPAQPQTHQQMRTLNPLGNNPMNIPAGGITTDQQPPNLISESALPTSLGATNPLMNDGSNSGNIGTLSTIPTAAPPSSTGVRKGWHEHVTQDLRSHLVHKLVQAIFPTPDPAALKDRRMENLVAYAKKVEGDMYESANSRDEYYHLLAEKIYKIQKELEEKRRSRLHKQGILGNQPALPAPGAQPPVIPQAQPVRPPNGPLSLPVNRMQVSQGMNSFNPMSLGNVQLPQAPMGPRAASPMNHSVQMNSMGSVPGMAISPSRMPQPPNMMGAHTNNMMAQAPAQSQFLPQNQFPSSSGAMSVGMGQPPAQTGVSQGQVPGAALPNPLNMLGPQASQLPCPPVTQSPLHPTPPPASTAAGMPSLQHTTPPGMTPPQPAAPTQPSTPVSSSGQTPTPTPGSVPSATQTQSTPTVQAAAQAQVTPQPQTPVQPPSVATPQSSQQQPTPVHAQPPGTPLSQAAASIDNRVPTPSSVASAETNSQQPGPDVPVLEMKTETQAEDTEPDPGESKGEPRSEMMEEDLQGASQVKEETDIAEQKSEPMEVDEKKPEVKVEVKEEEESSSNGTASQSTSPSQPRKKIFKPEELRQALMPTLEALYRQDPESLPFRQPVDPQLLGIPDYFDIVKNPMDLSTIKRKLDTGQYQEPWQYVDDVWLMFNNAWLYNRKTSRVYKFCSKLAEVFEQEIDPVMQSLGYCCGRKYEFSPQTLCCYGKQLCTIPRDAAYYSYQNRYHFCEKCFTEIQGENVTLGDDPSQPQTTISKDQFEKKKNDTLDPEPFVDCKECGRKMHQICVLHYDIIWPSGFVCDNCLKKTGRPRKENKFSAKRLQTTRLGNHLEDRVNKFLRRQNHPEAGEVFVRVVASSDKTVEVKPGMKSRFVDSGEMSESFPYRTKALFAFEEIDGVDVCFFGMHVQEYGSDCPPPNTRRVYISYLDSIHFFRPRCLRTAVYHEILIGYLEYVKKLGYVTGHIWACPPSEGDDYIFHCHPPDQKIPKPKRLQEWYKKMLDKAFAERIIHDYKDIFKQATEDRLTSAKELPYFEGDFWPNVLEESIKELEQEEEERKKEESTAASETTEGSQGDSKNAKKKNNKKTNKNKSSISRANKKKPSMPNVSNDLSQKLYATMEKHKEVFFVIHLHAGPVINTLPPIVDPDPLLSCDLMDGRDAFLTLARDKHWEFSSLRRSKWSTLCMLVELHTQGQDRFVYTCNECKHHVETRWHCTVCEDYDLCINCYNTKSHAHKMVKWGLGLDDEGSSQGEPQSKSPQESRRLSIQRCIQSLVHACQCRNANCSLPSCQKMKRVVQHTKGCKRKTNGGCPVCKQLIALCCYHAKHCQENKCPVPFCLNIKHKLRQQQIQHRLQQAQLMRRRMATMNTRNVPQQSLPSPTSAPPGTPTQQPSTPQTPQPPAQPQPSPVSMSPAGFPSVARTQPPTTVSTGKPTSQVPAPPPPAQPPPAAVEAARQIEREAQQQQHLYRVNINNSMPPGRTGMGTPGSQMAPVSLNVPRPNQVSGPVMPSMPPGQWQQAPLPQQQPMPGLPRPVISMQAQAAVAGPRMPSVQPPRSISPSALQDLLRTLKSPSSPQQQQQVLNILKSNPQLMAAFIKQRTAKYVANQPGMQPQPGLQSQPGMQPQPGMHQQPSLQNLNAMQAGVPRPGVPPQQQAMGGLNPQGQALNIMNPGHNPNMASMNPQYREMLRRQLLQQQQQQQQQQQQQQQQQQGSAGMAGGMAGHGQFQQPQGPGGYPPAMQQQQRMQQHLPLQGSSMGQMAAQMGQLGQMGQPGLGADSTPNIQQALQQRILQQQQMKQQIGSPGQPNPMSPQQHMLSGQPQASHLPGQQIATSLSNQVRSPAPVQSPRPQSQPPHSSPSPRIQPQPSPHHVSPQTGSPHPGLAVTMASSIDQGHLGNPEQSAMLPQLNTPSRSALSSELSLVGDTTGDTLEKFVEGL

Assay [1] deals with Bromodomain-containing protein 2 (Homo sapiens, UniProt P25440). Kind of assay: (§1) TR-FRET In-Vitro Binding Assay: All assays were performed in 384-well microtiter plates. Each assay plate contained 8-point serial dilutions for 40 test compounds, plus 16 high- and 16 low controls. Liquid handling and incubation steps were done on an Innovadyne Nanodrop Express equipped with a robotic arm (Thermo CatX, Perkin Elmer/Caliper Twister II) and an incubator (Liconic STX40, Thermo Cytomat 2C450). The assay plates were prepared by addition of 50 nl per well of compound solution in 90% DMSO HummingBird nanodispenser (Zinsser Analytic). The assay was started by stepwise addition of 4.5 uL per well of bromo domain protein (50 mM HEPES, pH 7.5, 0.005% Tween20, 0.1% BSA, 50 mM NaCl, 45 nM His-Brd2(60-472) or 45 nM His-Brd3(20-477) or 45 nM His-Brd4(44-477) all proteins produced in-house) and 4.5 uL per well of peptide solution (50 mM HEPES, pH 7.5, 0.005% Tween20, 0.1% BSA, 50 mM NaCl, 60 nM acetyl-histone H4 (AcK 5, 8, 12, 16) (Biosyntan GmbH)). Reactions were incubated at 30 C. for 35 minutes. Background: Time-resolved FRET reads energy transfer from a long-lived donor to a nearby acceptor.
Chain of Bromodomain-containing protein 2 (P25440 whole entry, the tested form may be a part): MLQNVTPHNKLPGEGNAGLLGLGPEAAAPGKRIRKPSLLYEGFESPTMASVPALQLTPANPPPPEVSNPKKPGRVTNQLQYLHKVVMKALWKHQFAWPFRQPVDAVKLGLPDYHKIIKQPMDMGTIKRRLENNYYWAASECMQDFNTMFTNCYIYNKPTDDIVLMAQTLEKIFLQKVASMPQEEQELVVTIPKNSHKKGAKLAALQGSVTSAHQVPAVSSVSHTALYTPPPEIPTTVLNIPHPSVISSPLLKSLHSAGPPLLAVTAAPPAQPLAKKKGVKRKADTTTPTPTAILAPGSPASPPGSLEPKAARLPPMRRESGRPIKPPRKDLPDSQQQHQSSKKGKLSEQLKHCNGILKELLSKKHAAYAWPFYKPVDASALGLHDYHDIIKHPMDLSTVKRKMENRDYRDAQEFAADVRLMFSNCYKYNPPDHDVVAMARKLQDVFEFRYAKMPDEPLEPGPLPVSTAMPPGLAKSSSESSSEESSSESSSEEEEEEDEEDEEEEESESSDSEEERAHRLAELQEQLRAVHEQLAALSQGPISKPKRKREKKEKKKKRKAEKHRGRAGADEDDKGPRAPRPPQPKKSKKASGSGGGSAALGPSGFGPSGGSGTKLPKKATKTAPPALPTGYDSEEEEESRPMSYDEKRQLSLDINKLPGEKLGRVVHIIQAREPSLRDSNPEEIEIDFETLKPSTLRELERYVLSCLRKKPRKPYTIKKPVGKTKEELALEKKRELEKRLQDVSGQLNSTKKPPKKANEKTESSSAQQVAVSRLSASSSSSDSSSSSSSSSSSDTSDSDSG

Assay [2] deals with Bromodomain-containing protein 3 (Homo sapiens, UniProt Q15059). The description is as §1.
Chain of Bromodomain-containing protein 3 (Q15059 whole entry): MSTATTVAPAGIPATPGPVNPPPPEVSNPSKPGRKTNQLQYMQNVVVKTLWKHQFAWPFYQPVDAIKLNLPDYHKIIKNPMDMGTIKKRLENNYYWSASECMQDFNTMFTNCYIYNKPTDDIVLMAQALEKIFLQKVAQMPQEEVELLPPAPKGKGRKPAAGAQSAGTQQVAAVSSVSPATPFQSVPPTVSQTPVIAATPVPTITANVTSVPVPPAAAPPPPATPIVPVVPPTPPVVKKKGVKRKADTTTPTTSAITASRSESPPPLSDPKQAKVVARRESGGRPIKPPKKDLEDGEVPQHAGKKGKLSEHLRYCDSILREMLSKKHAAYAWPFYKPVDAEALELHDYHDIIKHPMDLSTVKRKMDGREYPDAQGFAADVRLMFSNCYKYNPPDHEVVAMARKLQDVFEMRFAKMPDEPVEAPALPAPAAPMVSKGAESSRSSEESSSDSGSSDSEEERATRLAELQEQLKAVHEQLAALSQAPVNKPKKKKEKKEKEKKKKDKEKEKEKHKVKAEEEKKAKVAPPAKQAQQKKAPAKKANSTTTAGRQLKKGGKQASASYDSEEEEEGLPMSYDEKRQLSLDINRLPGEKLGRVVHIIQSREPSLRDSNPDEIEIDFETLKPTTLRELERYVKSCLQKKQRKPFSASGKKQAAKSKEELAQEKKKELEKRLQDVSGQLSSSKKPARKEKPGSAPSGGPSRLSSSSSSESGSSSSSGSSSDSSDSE
Assay [3] deals with Bromodomain-containing protein 4 (Homo sapiens, UniProt O60885). The description is as §1.

As for `Cc1cc(N2C(=O)c3nn(C(C)C)c(C)c3C2c2ccc(Cl)cc2F)cn2c(C)nnc12` (stereo not given), the half-inhibitory concentration (IC50) was determined as 2600 nM on CREB-binding protein, 120 nM in assay [1], 60 nM in assay [2] and 71 nM in assay [3].

For the compound `COc1ncccc1-n1nc2c(c1C)C(c1ccc(F)cc1F)N(c1cc(C)c3nnc(C)n3c1)C2=O` (stereo not given), the concentration for half-maximal inhibition (IC50) on CREB-binding protein came to 16000 nM; in assay [1] it was 130 nM; in assay [2], 80 nM; in assay [3], 55 nM.

For `Cc1[nH]nc2c1C(c1ccc(Cl)cc1F)N(c1cc(C)c(=O)n(C)c1)C2=O` (stereo not given), the IC50 was 2800 nM at CREB-binding protein, 270 nM in assay [1], 170 nM in assay [2] and 190 nM in assay [3].

For the compound `CCc1nn(CCOC)c2c1C(c1ccc(Cl)cc1)N(c1cc(C)c(=O)n(C)c1)C2=O` (stereo not given), the IC50 on CREB-binding protein came out at 4800 nM; in assay [1], 52 nM; in assay [2] it was 44 nM.
